From patent publication US9220706B2, “Inhibition of leukemic stem cells by PP2A activating agents” (Ohio State Innovation Foundation, priority 2012, dated 2015) come the findings set out here.

This series relates to human CML CD34^+ BM cells in NSG mice. It counts as in vivo. An excerpt:
Engraftment of Human Normal and CML Cells in Immnunodeficient NSG Mice and Effect of FTY720 on Leukemic and Normal Hematopoietic Stem/Progenitor Cells. CD34+ cells were isolated from BM of CML patients (n=3) or from umbilical cord blood specimens (UCB; n=3). Note that CML samples were from patients in blastic transformation with ≧75% of Ph+ blasts. Sublethally irradiated (260 rads) 6-8 week-old NOD.Cg-Prkds^scid IL2rg^tm1WjI/SzJ (NSG, Jackson Laboratory) mice were intrafemorally injected with 1-3×10^6 CML or 10^5 UCB CD34^+ cells/mouse. The engraftment was assessed 8 weeks post-transplant by anti-human CD45 (BD Biosciences) and anti-mouse CD45.1 flow staining of intrafemoral BM aspirates and PB from tail vein. Wunderlich et al., Leukemia 24, 1785-1788 (2010). CML- and UCB-engrafted NSG mice were treated for 8 weeks (8-10 mice/group) with either FTY720 (10 mg/kg/day; i.p.) or PBS. Disease evolution and effect of FTY720 on HSC-enriched cell fraction (CD45^+/CD34^+/CD38^−), primitive progenitors (CD45+/CD34+), myeloid (CD45^+/CD34^+/CD33^+), B-cell (CD45^+/CD19^+) and T-cell (CD45^+/CD3^+) compartments were determined before and after 4/8 weeks of FTY720 treatment by FACS-mediated analysis of BM aspirates and/or PB cells. BCR-ABL1 transcript levels were monitored by qRT-PCR-mediated (Ipsogen) analysis of BCR-ABL1/human Abl1 ratios in total RNA samples derived from BM-aspirates of CML-engrafted animals at time of engraftment (time 0) and after 8 weeks of FTY720 treatment. […] These studies were performed by IRB and IACUC approved protocols.
Fluorescent in situ hybridization (FISH). Human CD45+ cells from intrafemoral BM aspirates of untreated and 8 weeks FTY720-treated NSG mice engrafted with CD34+ CML-BC and UCB cells, were FACS-isolated, dropped onto microscope slides, and fixed in a solution of three parts methanol and one part acetic acid. A triple color, dual fusion BCR/ABL1 FISH probe was applied according to the manufacturer's instructions (Kreatech Diagnostics). Hybridized slides were counterstained with DAPI and visualized under an Olympus BX41 microscope. Images were captured using a Hammamatsu Orca II CCD camera and SmartCapture X software (Digital Scientific).

Setting [1] is: BM of NSG mice, 4 and 8 weeks FTY720 10 mg/kg/day i.p.

In the case of `CCCCCCCCc1ccc(CCC(N)(CO)CO)cc1` [FTY720], the “BCR-ABL1 transcripts (BCR-ABL1/hAbl1)” value (BM aspirates of FTY720-treated CML-engrafted mice) is “significant decrease”. In addition, under setting [1], the “reduction in CD45^+/CD34^+ progenitors” value is reported as ~85%, the “reduction in CD45^+/CD34^+/CD38^− HSCs” value was ~97% and the “reduction in total hCD45^+ cells” value is ~83%. Under “CML-engrafted NSG mice”, the “Ph^+ hCD45^+/CD33^+ myeloid cells” value is on record as “also reduced”. The “adverse effects or changes in animal behavior” value (mouse, in vivo, ip, 10 mg/kg/day) is listed as “have not been noted”.
